Measurements from patent US20120157396A1, “PYRAZINAMIDE FOR IMMUNOSTIMULATION AND THE TREATMENT OF LEISHMANIASES” (priority 2009, published 2012).
Where two headings read alike, the source gives them in different places.

Key:
[1] = tested on: J774 cells; experiment: J774 cell activation, surface markers by flow cytometry; type: cell-based, murine; settings: 10 and 100 μM, with or without L. major
Method: Because of the strong in vivo effect of PZA, we studied the effect of treatment on macrophages. First, we looked at activation markers and cytokine secretion by J774 cells (a murine macrophage cell line) following treatment with PZA (10 and 100 μM) in the presence or absence of L. major infection (1:5 macrophage:parasite ratio) were examined. As a positive control, cells were exposed to a mixture of IFN-γ and LPS, known to increase the level of activation. Expression of surface molecules was determined in unstimulated cells, and on infected, untreated cultures. Twenty-four hours after infection and/or treatment, cells were collected and stained with fluorescent antibodies against the co-stimulatory molecules CD80 and CD86, as well as MHC Class II, and analyzed by flow cytometry.
J774 cells or bone marrow-derived cells were seeded onto 24-well plates at a concentration of 5×10^5 cells/ml. Twenty-four hours later, PZA was added to the wells at different concentrations in the absence or presence of L. major (1:5 parasite ratio). In some experiments, J774 cells were treated with amphotericin B (0.1, 0.5, or 1 μg/ml). […] For each sample, at least 50,000 cells were analyzed. The data were collected and analyzed using CELLQuest software and a FACScalibur flow cytometer (Becton Dickinson, San Jose, Calif.).

[2] = tested on: L. major amastigotes; experiment: L. major amastigotes within J774 cells, parasite survival; type: cell-based; settings: for MIC50: Leishmania major
Method: To distinguish between leishmaniostatic and leishmanicidal effects, a time course survival curve was generated for J774 cultures infected with L. major.
Amastigotes were generated by infecting J774 murine macrophages. Infections were carried after seeding cells in 8-well Labtek chambers (Thermo Physic Scientific, Rochester N.Y.) at a concentration of 5×10^4 cells/well. To avoid multiplication, cells were incubated with mitomycin C at a concentration of 0.8 μg/ml for 16 h. Infective-stage promastigotes (metacyclics) of L. major were isolated from stationary cultures (4-5 day-old) by Ficoll enrichment, added to macrophage cultures (5 promastigotes: 1 cell) and kept overnight at 37° C. in the presence of 5% CO2 and DMEM with 10% FCS. Sixteen hours later, non-internalized promastigotes were then washed and replaced by culture medium containing the drug. Forty-eight hours later, wells were detached from the slides, stained with Diff-Quick (Dade Behring, Newark, Del.) and counted under light microscope. Parasite burden was determined by observation under light microscopy (1000×) as the number of amastigotes per one hundred J774 cells. Percentage of survival of amastigotes and MIC50 were calculated as above.

[3] = tested on: Leishmania; experiment: J774 cells infected with old- and new-world Leishmania species, 48 hr post treatment; type: cell-based
Excerpt: FIG. 8. Effect of PZA on J774 cells infected with Leishmania 48 hr post treatment. Data expressed as % survival compared to untreated control (100% survival). Mean±SD of 3 independent determinations.
FIG. 9. A. Effect of 5-Chloro PZA on J774 cells infected with Leishmania, 48 hr post treatment. Data expressed as % survival compared to untreated control (100% survival). Mean±SD of 3 independent determinations. […] B. Cytokine IL-2 production—5-Chloro PZA stimulated 2× more proinflammatory cytokines than PZA, even in Leishmania-infected macrophages (similar results with IFNγ, TNFα, NO).

[4] = tested on: L. major; type: in vivo, C57BL/6 mice
Method: Mouse Model of CL. To assess the in vivo efficacy of PZA in a relevant in vivo model of cutaneous leishmaniasis, C57BL/6 mice were intradermally infected with 5×10^5 L. major parasites per ear (n=6 mice, 12 ears). One day after infection, mice were treated orally with PZA at several concentrations (900-150 mg/kg) for four weeks, five days a week. […] Parasite burden in ears was determined at 5 weeks post infection in all experimental groups.
Mice (n=6) were anesthetized with isoflurane (Abbott Laboratories, Chicago, Ill.) and vaccinated intradermally in both ears with 5×10^5 L. major promastigotes in a volume of 10 μl using a 27½ G needle. PZA was diluted in water and administered by oral gavage in a 0.2 ml volume. A control group was treated with water containing DMSO (3.8%). The timetable for the experiment was as follows: day 0, infection; days 1-5, 8-12, 15-19 and 22-26, drug administration, and day 70, sacrifice. Lesion size was monitored 1-2 times per week by measuring the lesion diameter with a vernier caliper. Mice were sacrificed by CO2 inhalation.
Parasite loads in the ears were determined as previously described. Briefly, the ventral and dorsal sheets of the infected ears were separated and deposited in RPMI containing 100 U/ml penicillin/100 μg/ml streptomycin and Liberase CI enzyme blend (Boehringer Mannheim, 0.5 mg/ml). Ears were incubated for 60 min at 37° C. The sheets were dissociated using a handheld tissue homogenizer. The homogenates were filtered using a 70 μm an cell strainer (BD Falcon, San Jose, Calif.) and serially diluted in a 96-well flat bottom microtiter plate containing biphasic medium prepared using 50 μl NNN medium containing 20% of defibrinated rabbit blood overlaid with 100 μl medium 199. The number of viable parasites in each ear was estimated from the highest dilution at which promastigotes could be grown out after 7 days of incubation at 26° C.

[5] = tested on: bone marrow-derived macrophages; experiment: Cytokine and NO production in bone marrow-derived macrophages; type: cell-based, C57BL/6 mice; design: unit not given here; settings: macrophage, drug 100 μM

With `NC(=O)c1cnc(Cl)cn1` [5-Cl PZA, 5-chloro pyrazinamide] the “expression of costimulatory molecules CD80, CD86 and MHC Class II” value [1] was “enhanced”, the “MIC50 reduced relative to PZA” value ([2]; L. major amastigotes within J774 cells) was 5 fold and the “MIC50 for PZA analogs” value ([2]; L. major amastigotes within J774 cells (Table Ia)) was 2.1 μM. The “activity at killing leishmanial species relative to PZA” value ([3]; old- and new-world leishmanial species in J774 cells) was 10 fold, the MIC ([3]; variety of old- and new-world leishmanial species in J774 cells, 48 hr) was 1 to 13 µM and the “average lesion size compared to untreated controls” value ([4]; 5-Cl PZA oral, 150 mg/kg) was “significant reduction in average lesion size”. The NO production ([5]; infected with L. major (Lm)) was 1599 ± 812, the TNF-α production ([5]; infected with L. major (Lm)) was 1928 ± 444 and the NO production ([5]; uninfected) was 1145 ± 721. The TNF-α production ([5]; uninfected) was 1598 ± 542.

For `NC(=O)c1cnccn1` [PZA, pyrazinamide], the “expression of costimulatory molecules CD80, CD86 and MHC Class II” value [1] was “increased expression”, the “increase in MIC50 of amastigotes versus promastigotes” value ([2]; 48 hours post infection) was 10 fold and the MIC50 ([2]; 48 h, amastigote in J774, 48 h, read-out: MIC50) was 10.2 µg/mL. The MIC50 ([2]; L. major amastigotes within J774 cells (Table Ia), read-out: MIC50 for PZA analogs) was 9.5 µM, the “percentage of survival compared to untreated control” value (“percentage of survival” below) ([2]; amastigote in J774, PZA 1 μg/ml, 48 h) was 89 ± 12% and the “percentage of survival” value ([2]; amastigote in J774, PZA 12.5 μg/ml, 48 h) was 47 ± 12%. For the same compound, the “percentage of survival” value ([2]; amastigote in J774, PZA 100 μg/ml, 48 h) was 23 ± 10%, the “percentage of survival” value ([2]; amastigote in J774, PZA 1000 μg/ml, 48 h) was 20 ± 15% and the “killing of Leishmania species” value ([3]; J774 cells infected with Leishmania, 48 hr post treatment (FIG. 8)) was “killed old-world and new-world VL leishmanial species”. For the same compound, the “parasite burden in ears after healing” value ([4]; 12 weeks post infection) was “comparable among all experimental groups”, the “average lesion size compared with untreated mice” value ([4]; PZA oral 900-150 mg/kg, four weeks, five days a week, all time points) was “significant (P=0.0001) reduction of the average lesion size” and the “decrease of parasite burden in infected ears compared to untreated control” value ([4]; PZA oral, week 6 post infection) was 100 fold. For the same compound, the “body weight of experimental animals” value ([4]; mouse, in vivo) was “no significant differences in body weight”, the NO production ([5]; infected with L. major (Lm)) was 699 ± 112 and the TNF-α production ([5]; infected with L. major (Lm)) was 921 ± 345. The NO production ([5]; uninfected) was 543 ± 221 and the TNF-α production ([5]; uninfected) was 758 ± 246.
